pKi: −log10 of the molar value.
Assays:
Experiment in all cases: Esterase Activity Assay
[1] = biological target: Carbonic anhydrase 1 (Homo sapiens, UniProt P00915)
[2] = biological target: Carbonic anhydrase 2 (Homo sapiens, UniProt P00918)
[3] = biological target: Carbonic anhydrase 4 (Homo sapiens, UniProt P22748)
[4] = biological target: Carbonic anhydrase 6 (Homo sapiens, UniProt P23280)
Carbonic anhydrase 6, sequence (P23280 whole entry): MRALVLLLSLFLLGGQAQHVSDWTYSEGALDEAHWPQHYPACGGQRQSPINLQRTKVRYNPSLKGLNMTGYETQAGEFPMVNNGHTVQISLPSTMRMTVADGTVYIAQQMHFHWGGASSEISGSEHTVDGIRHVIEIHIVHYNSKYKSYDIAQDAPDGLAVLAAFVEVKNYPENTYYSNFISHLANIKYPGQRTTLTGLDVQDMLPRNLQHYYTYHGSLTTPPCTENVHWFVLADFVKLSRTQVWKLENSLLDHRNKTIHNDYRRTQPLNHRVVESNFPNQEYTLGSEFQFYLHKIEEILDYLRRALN

Carbonic anhydrase 4, sequence (P22748 whole entry): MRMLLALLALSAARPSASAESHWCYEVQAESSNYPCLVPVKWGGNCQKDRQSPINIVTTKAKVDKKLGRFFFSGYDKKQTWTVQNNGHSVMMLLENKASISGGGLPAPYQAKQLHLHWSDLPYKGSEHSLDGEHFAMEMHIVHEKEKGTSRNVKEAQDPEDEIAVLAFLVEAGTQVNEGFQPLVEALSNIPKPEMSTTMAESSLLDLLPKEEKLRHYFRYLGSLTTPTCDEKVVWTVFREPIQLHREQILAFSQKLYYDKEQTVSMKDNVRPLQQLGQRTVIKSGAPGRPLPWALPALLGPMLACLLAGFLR
Carbonic anhydrase 1, sequence (P00915 whole entry): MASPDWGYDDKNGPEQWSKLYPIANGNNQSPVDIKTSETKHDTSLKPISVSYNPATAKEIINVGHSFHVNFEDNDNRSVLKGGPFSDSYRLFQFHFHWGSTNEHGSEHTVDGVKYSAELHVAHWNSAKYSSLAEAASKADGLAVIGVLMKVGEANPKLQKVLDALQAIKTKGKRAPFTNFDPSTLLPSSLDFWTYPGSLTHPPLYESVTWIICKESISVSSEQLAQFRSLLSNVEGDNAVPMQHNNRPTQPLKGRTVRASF

pKi [1] | pKi [2] | pKi [3] | pKi [4] | SMILES
 | 6.28 | 6.31 | 5.17 | Oc1cccc(O)c1O
4.10 | 5.19 | 5.09 | 4.92 | COc1cc(C=O)ccc1OS(C)(=O)=O [4-Formyl-2-methoxyphenyl methanesulfonate (15)]
3.32 | 4.45 | 4.35 | 3.34 | CS(=O)(=O)Oc1cccc(OS(C)(=O)=O)c1OS(C)(=O)=O [Benzene-1,2,3-triyltrimethanesulfonate (11)]
3.71 | 4.55 | 4.38 | 3.50 | CS(=O)(=O)Oc1ccccc1OS(C)(=O)=O [1,2-Phenylenedimethanesulfonate (13)]
4.65 | 5.37 | 5.04 | 4.55 | CS(=O)(=O)Oc1ccc(OS(C)(=O)=O)cc1 [1,4-Phenylene dimethanesulfonate (6)]

The remaining lines, values behind:

SMILES | pKi [1] | pKi [2] | pKi [3] | pKi [4]
CS(=O)(=O)Oc1ccc(-c2ccccc2)cc1 [Biphenyl-4-ylmethanesulfonate (5)] | 4.31 | 4.91 | 4.58 | 3.79
Oc1ccccc1 |  | 5.25 | 5.01 | 
Oc1ccc(-c2ccccc2)cc1 [4-Hydroxybiphenyl] | 4.71 | 5.13 | 4.91 | 4.07
CS(=O)(=O)Oc1ccccc1 [Phenylmethanesulfonate (4)] | 4.56 | 5.06 | 4.81 | 3.98
COc1ccccc1O [1-Hydroxy-2-methoxybenzene] |  | 5.53 | 5.45 | 3.66

— BindingDB's records for doi:10.3109/14756366.2011.637202 (Agri Ibrahim Cecen University, 2012)
